Data taken from patent US20260325541A1, “BENZGALANTAMINE FOR TREATING PERSISTENT POST-CONCUSSION SYMPTOMS” (Alpha Cognition Inc., priority 2023, published 2026).
Where a name gives a salt, the structure may show the parent alone.

Key:
E. coli ATCC 8739 = test: USP 51 antimicrobial effectiveness test, E. coli; assay type: cell-based, Escherichia coli; settings: for CFU/mL: initial 9.1 × 10^5 CFU/mL, 22.5±2.5 °C; for Log Reduction: initial log10 6.0
Experimental: (§1) As shown in WO2022236396A1, in order to assess the anti-microbial properties of ALPHA-1062, the USP (US Pharmacopeia) Chapter 51 Preservative Challenge Test (USP 51) was employed. The USP 51 is a common method used to gauge preservative effectiveness. Much like a Preservative Challenge Screen, it is used to evaluate the effect of preservatives in cosmetics, personal care products, and drug products. Preservatives are typically antimicrobial ingredients that are added to aqueous product formulations to help maintain the safety of the product by inhibiting the growth and reducing the number of microbial contaminants.
(§2) In the context of the present invention, ALPHA-1062 (in the form of the gluconate salt) was assessed in place of (as) a preservative. No additional preservative was added to the ALPHA-1062 gluconate preparation, rather an anti-microbial effect of the agent itself (ALPHA-1062) was assessed. ALPHA-1062 is therefore the anti-microbial agent in the assay and experiments described below.
(§3) The USP 51 challenge test utilizes 5 microorganisms (3 bacteria and 2 fungi) for challenge testing. Each of the microorganisms are known strains of pathogenic microorganisms and they represent a wide range of microbial physiologies.
(§4) Cultures of the following microorganisms were applied, as per standard guidelines for USP 51: Candida albicans (ATCC No. 10231), Aspergillus brasiliensis (ATCC No. 16404), Escherichia coli (ATCC No. 8739), Pseudomonas aeruginosa (ATCC No. 9027), and Staphylococcus aureus (ATCC No. 6538). […]
(§5) The initial concentration of viable microorganisms in each test preparation was estimated based on the concentration of microorganisms in each of the standardized inoculums, as determined by the plate-count method.
(§6) The inoculated containers were incubated at 22.5±2.5 °C and each container was sampled at the appropriate intervals, as specified in Table 3. Any changes observed in the appearance of the culture was recorded at these intervals. By using the plate-count procedure, the number of CFU present in each test preparation was determined for the applicable intervals.
(§7) An inactivator (neutralizer) of the specific antimicrobial was incorporated in the plate count or in the appropriate dilution prepared for plating. These conditions were determined in the validation study for that sample based upon the conditions of media and microbial recovery incubation times listed in Table 2. Using the calculated concentrations of CFU per mL present at the start of the test, the change in log 10 values of the concentration of CFU per mL for each microorganism was calculated at the applicable test intervals, and the changes were expressed in terms of log reductions.

P. aeruginosa ATCC 9027 = test: USP 51 antimicrobial effectiveness test, P. aeruginosa; assay type: cell-based, Pseudomonas aeruginosa; settings: for CFU/mL: initial 2.9 × 10^5 CFU/mL, 22.5±2.5 °C; for Log Reduction: initial log10 5.5
Experimental: as §1, §2, §3, §4, §5, §6, §7

S. aureus ATCC 6538 = test: USP 51 antimicrobial effectiveness test, S. aureus; assay type: cell-based, Staphylococcus aureus; settings: for CFU/mL: initial 4.0 × 10^5 CFU/mL, 22.5±2.5 °C; for Log Reduction: initial log10 5.6
Experimental: as §1, §2, §3, §4, §5, §6, §7

C. albicans ATCC 10231 = test: USP 51 antimicrobial effectiveness test, C. albicans; assay type: cell-based, Candida albicans; settings: for CFU/mL: initial 6.7 × 10^5 CFU/mL, 22.5±2.5 °C; for Log Reduction: initial log10 5.8
Experimental: as §1, §2, §3, §4, §5, §6, §7

[1] = system: A. brasiliensis ATCC 16404; test: USP 51 antimicrobial effectiveness test, A. brasiliensis; assay type: cell-based, Aspergillus brasiliensis; settings: for CFU/mL: initial 2.2 × 10^5 CFU/mL, 22.5±2.5 °C; for Log Reduction: initial log10 5.3
Experimental: as §1, §2, §3, §4, §5, §6, §7

[2] = system: all 5 organisms tested in the USP 51; test: USP 51 overall assessment against Category 2 criteria; assay type: cell-based; settings: USP 51, Category 2 criteria, 14 and 28 days
Experimental: as §1
In the context of the present invention, ALPHA-1062 (in the form of the gluconate salt) was assessed in place of (as) a preservative. No additional preservative was added to the ALPHA-1062 gluconate preparation, rather an anti-microbial effect of the agent itself (ALPHA-1062) was assessed. […]
as §5
The inoculated containers were incubated at 22.5±2.5 °C and each container was sampled at the appropriate intervals, as specified in Table 3. Any changes observed in the appearance of the culture was recorded at these intervals. […]

[3] = Body weight / overt toxicity over the 35-day study; assay type: in vivo, male Wistar rats
From the text: Young adult (2-3 months) male Wistar rats were subjected to a moderate TBI induced by controlled cortical impact (CCI). Animal models of TBI including the CCI model and functional tests have been described in detail in peer reviewed publications (Xiong et al., 2013, Nat Rev Neurosci.; Zhang et al., 2016, J Neurosurg.; Zhang et al., 2016, Neurochem Int.; Zhang et al., 2021, J Neurotrauma). Injury consisted of a single impact at 4.0 m/see, 2.5 mm deformation to the left parietal cortex. In addition, a group of animals was left healthy/not injured to serve as a healthy control.
The animals were divided into 3 groups: • 1) TBI+Vehicle (purified water, n=10) • 2) TBI+ALPHA-1062 (4.5 mg/kg) (n=10) • 3) Healthy/not injured and not treated (Sham surgery) (n=10)
The substance used in this study was ALPHA-1062 at 4.5 mg/kg. As control treatment (vehicle) purified water was administered intranasally (IN). The ALPHA-1062 and the control treatment were initiated 2 hours after injury and continued twice daily (with a 6-hour interval) for 35 consecutive days.
Data were evaluated for normality applying the following statistical analyses: Data transformation was considered if the data was abnormal. The data was analyzed with GraphPad Prism Software 9.0. All data herein is presented as the mean±standard deviation (SD) and were analyzed with one-way analysis of variance (ANOVA) or two-way ANOVA (treatment x time) followed by post hoc Tukey's multiple comparison test (more than two groups). Differences between means are considered statistically significant when p is <0.05.

[4] = system: mice after repeated blast mild traumatic brain injury (blast mTBI); test: Thermal Gradient Ring (TGR) assessment of heat/pain sensitivity after repetitive blast mTBI; assay type: in vivo, C57Bl/6 mice; settings: after one month of treatment, 3.0 mg/kg
[5] = intra-nasal administration, similar doses; cited from earlier work
[6] = Solid-state stability of Form A; assay type: physicochemical
Experimental: As described therein, polymorphic studies were conducted with benzgalantamine utilizing a variety of solvents and crystallization conditions (Table 5 of WO 2022/150917) and subsequent XRPD analyses. Seven unique crystalline materials were observed and isolated, and were designated as Forms A, B, C, D and Materials E, F and G (FIG. 6 of WO 2022/150917). Amorphous material was also observed. Form A of benzgalantamine is an anhydrous crystalline material with concomitant melt/decomposition onset near 117 °C. […] Based upon WO 2022/150917, anhydrous Form A, stored under appropriate temperature and humidity conditions to maintain its Form and stability, appears best suited of the various benzgalantamine forms to be used in formulation and manufacture of drug products.
As used herein, the term stable may relate to either chemical stability or to polymorph stability. Polymorph stability refers to the likelihood of a polymorph form remaining in its specific crystalline state under suitable storage conditions. For example, a stable polymorph form will maintain at least about 95% by weight, preferably at least about 98% by weight, and more preferably at least about 99% by weight or more of the crystalline form, in other words the form remains unchanged after storage under the indicated conditions for the indicated time.

[7] = 43% RH (RT); from WO 2022/150917; cited from earlier work
[8] = system: patients with chronic TBI; settings: oral, cited from earlier work; for adverse effects: chronic TBI patients; for TBI-related symptoms: patient reported, not placebo controlled
pre-clinical models = settings: cited from earlier work
[9] = system: microglial phagocytic activity; settings: cited from earlier work
[10] = nausea, vomiting and diarrhea; Cochrane review 2006; cited from earlier work

## COc1ccc2c3c1O[C@H]1C[C@@H](OC(=O)c4ccccc4)C=C[C@@]31CCN(C)C2 [ALPHA-1062 Gluconate, (4aS,6R,8aS)-4a,5,6,9,10,11,12-hexahydro-3-methoxy-11-methyl-6H-benzofuro[3a,3,2-ef][2]benzazepin-6-benzoate-gluconate salt]
E. coli ATCC 8739; Day 14
  CFU/mL: <10 CFU/mL
  Log Reduction: 5.0 Log
E. coli ATCC 8739; Day 28
  CFU/mL: <10 CFU/mL
  Log Reduction: 5.0 Log
P. aeruginosa ATCC 9027; Day 14
  CFU/mL: <10 CFU/mL
  Log Reduction: 4.5 Log
P. aeruginosa ATCC 9027; Day 28
  CFU/mL: <10 CFU/mL
  Log Reduction: 4.5 Log
S. aureus ATCC 6538; Day 14
  CFU/mL: <10 CFU/mL
  Log Reduction: 4.6 Log
S. aureus ATCC 6538; Day 28
  CFU/mL: <10 CFU/mL
  Log Reduction: 4.6 Log
C. albicans ATCC 10231; Day 14
  CFU/mL: <10 CFU/mL
  Log Reduction: 4.8 Log
C. albicans ATCC 10231; Day 28
  CFU/mL: <10 CFU/mL
  Log Reduction: 4.8 Log
[1]; Day 14
  CFU/mL: 1.6 × 10^2 CFU/mL
  Log Reduction: 3.1 Log
[1]; Day 28
  CFU/mL: 1.5 × 10^2 CFU/mL
  Log Reduction: 3.1 Log
[2]
  anti-microbial effect: strong anti-microbial effect against all 5 organisms tested in the USP 51

## COc1ccc2c3c1O[C@H]1C[C@@H](OC(=O)c4ccccc4)C=C[C@@]31CCN(C)C2 [ALPHA-1062, (4aS,6R,8aS)-5,6,9,10,11,12-hexahydro-3-methoxy-11-methyl-4aH-[1]benzofuro[3a,3,2-ef][2]benzazepin-6-ol benzoate]
[3]; 35 days, 4.5 mg/kg IN twice daily
  overt toxicity vs vehicle animals: did not show overt toxicity
[3]; days 1-7 (D1-7)
  body weight change vs day zero: significant body weight loss (p<0.05)
[3]; days 29-35 (D29-35)
  body weight change vs day zero: significant body weight gain
[3]; each time point D0-D35, 4.5 mg/kg IN twice daily, FIG. 10
  body weight vs vehicle treated or untreated animals: no significant alterations in body weight compared to vehicle treated or untreated animals
[4]
  persistence of structural/functional benefit following removal of drug treatment: at least 2 months
[5]
  bioavailability in the brain vs oral galantamine: higher bioavailability in the brain, than similar doses of oral galantamine

## COc1ccc2c3c1O[C@H]1C[C@@H](OC(=O)c4ccccc4)C=C[C@@]31CCN(C)C2.O=C(O)C(O)C(O)C(O)C(O)CO [Form A]
[6]; appropriate storage conditions
  chemical stability: good chemical stability
[6]; room temperature, at or under about 43% RH or less than 0.12 aw, multiple months
  polymorph stability on storage: good stability
[7]
  duration for which Form A was sustained: up to 5 days
  kinetic stability in the solid state: kinetically stable in the solid state

## COc1cc2c(cc1OC)C(=O)C(CC1CCN(Cc3ccccc3)CC1)C2 (centres unmarked) [donepezil]
[8]
  adverse effects: about half of all patients experienced disturbing adverse effects
  TBI-related symptoms: subjective improvement of TBI-related symptoms

## COc1ccc2c3c1O[C@H]1C[C@@H](O)C=C[C@@]31CCN(C)C2 [galantamine]
pre-clinical models; active metabolite of benzgalantamine
  pre-clinical effects: increase cholinergic activation, reduce neuroinflammation, improve blood-brain barrier function, activate cell survival signalling pathways as well as increase neurogenesis
pre-clinical models
  glutamate and beta-amyloid toxicity: decrease both glutamate and beta-amyloid toxicity
[9]
  microglial phagocytic activity: activation of microglial phagocytic activity
[8]
  adverse effects: about half of all patients experienced disturbing adverse effects
  TBI-related symptoms: subjective improvement of TBI-related symptoms
[10]
  gastro-intestinal (GI) side effects: clinically significant level of mechanism-based gastro-intestinal (GI) side effects

## CCN(C)C(=O)Oc1cccc([C@H](C)N(C)C)c1 [rivastigmine]
[8]
  adverse effects: about half of all patients experienced disturbing adverse effects
  TBI-related symptoms: subjective improvement of TBI-related symptoms
